Assays:
Format in all cases: cell-based, human
[1] = system: SVCT-2 high-expression cell lines, Sw620 and Sw480; assay: qRT-PCR gene expression analysis, SVCT-2 high-expression cell lines
Procedure: (§1) According to the method provided by the manufacturer, the total RNA of cells was extracted using TRI reagent (MRC; Molecular Research Center, Cincinnati, Ohio, USA). The RNA concentration was determined using a spectrophotometer reading the absorbance at 260 nm. cDNA was synthesized using mML-V reverse transcriptase (Bioneer Co, Daejeon, Republic of Korea) according to the protocol provided by the manufacturer. Then, using SYBR Premix Ex Taq (TaKaRa, Otsu, Shinga, Japan) and Rotor-Gene Q system (Qiagen, Chadstone, Victoria, Australia), quantitative real-time PCR was carried out. Data were analyzed using Rotor-Gene Q series software version 2.3.1 (Qiagen).
(§2) In order to confirm the apoptosis and hormetic proliferation response by vitamin C, the quantitative real-time polymerase chain reaction (qRT-PCR) gene-expression analysis of p53, Cyclin D1, E2F1 and Ki-67 genes was conducted using the method of Experimental example 3, and the result was shown in FIG. 2c to FIG. 2f.
After treating vitamin C 10 μM and phloretin to SVCT-2 high-expression cell lines, Sw480 and Sw620 at the same time, the relative expression of Ki-67 and E2F1 used as cancer cell proliferation markers was measured using the qRT-PCR of Example 1, and the result was shown in FIG. 5e and FIG. 5f.

[2] = system: Sw620 and Sw480 cell lines; assay: ROS production by DCF-Da staining (FACS), SVCT-2 high-expression cell lines
Description: In order to confirm ROS production in SVCT-2 high-expression cell lines in the apoptosis response and hormetic response, and more specifically confirm the cause of the result of Example 5, the present inventors investigated ROS production using DCF-Da staining in Sw620 cell line and Sw480 cell line, and the result was shown in FIG. 5c and FIG. 5d.

[3] = system: SVCT-2 high-expression cell lines, Sw480 and Sw620; assay: Western blot of Bax, c-Myc and Cyclin D1, SVCT-2 high-expression cell lines
Procedure: (§3) Protein was extracted from frozen tissue using PRO-PREP protein extraction kit according to the instruction of the manufacturer. The protein concentration was measured using Bradford assay (Bio-RAD, Munich, Germany)
(§4) After denaturalizing protein 30 μg in sample buffer at 95° C. for 6 minutes, samples were loaded on 12% SDS-polyacrylamide gel and were transferred to a nitrocellulose blotting membrane. Subsequently, the membrane was blocked with 5% skim milk in Tris-buffered saline. Then, after washing it with Tris-buffered saline-0.10% Tween 20 three times, the membrane was cultured at 4° C. overnight with anti-cyclin D1 (1:2500; NB600-584; Novus biologics), anti-c-Myc (1:2500; NB200-108; Novus biologics), anti-Bax (1:2000; 2774; Cell Signaling Technology, Beverly, Mass., USA), and anti-beta-actin (1:5000; ab20272; Abcam, Cambridge, Mass., USA) antibodies. Then, after washing it with Tris-buffered saline-0.10% Tween 20 4 times for 20 minutes, the membrane was cultured with a secondary anti-rabbit, anti-rat or anti-goat antibody for 1 hour. After additional washing, immunoreactive bands exposed to ECL substrate (Pierce, Rockford, Ill., USA) and X-ray film (Agfa-Gevaert N.V, Septestraat, Mortsel, Belgium) were detected.
After treating vitamin C 10 μM and phloretin to SVCT-2 high-expression cell lines, Sw480 and Sw620 at the same time, the western blot analysis of Bax, c-Myc and Cyclin D1 in cells was conducted, and the result was shown in FIG. 6c and FIG. 6d.

[4] = system: SVCT-2 high-expression cells; assay: c-Myc localization by immunocytochemistry, SVCT-2 high-expression cell lines; settings: phloretin treated together with vitamin C
Procedure: (§5) Cells treated with vitamin C were immobilized with 4% paraformaldehyde for 10 minutes and were washed with PBS 3 times for 5 minutes, and then permeable buffer (Biolegend, San Diego, Calif., USA) was treated for 10 minutes. Then, cells were washed with PBS 3 times and were cultured with anti-c-Myc (1:500; NB200-108, Novus biologics) antibody at 4° C. overnight. Then, after washing with PBS 4 times, cells were cultured with a secondary anti-mouse-TRITC (1:1000; ab6786; Abcam) conjugated antibody.
In order to confirm the cell proliferation by the hormetic response in cancer cell lines, the cell proliferation confirmation experiment through c-Myc was conducted.
Specifically, after smearing cells on cover glass and culturing them, vitamin C was treated and after washing with PBS, an antigen with […] as antigens was attached to cells, and it was confirmed through fluorescence.

[5] = system: SVCT-2 high-expression cell lines, Sw480 and Sw620; assay: Cell viability of Sw480 and Sw620 treated with vitamin C and/or phloretin; settings: for cell response (cell viability): Sw620 and Sw480
Procedure: (§6) The cell viability was measured by Neutral red (sigma) assay. Cells (1×10^4/each well) were inoculated on a 96-well plate and were cultured for 24 hours and were treated with vitamin C for 4 hours, and then were washed with PBS (Pan Biotech), and were further cultured in RPMI1640 without vitamin C for 20 hours. They were washed twice and were stained.

[6] = system: SVCT-2 high-expression cell lines, Sw480 and Sw620; assay: Vitamin C absorption in Sw480 and Sw620 with the SVCT family inhibitor phloretin; settings: phloretin 20 μM together with vitamin C 1 mM
Procedure: In order to measure the vitamin C absorption of each colorectal cancer cell line, the absorption of vitamin C in cells was analyzed with High Performance Liquid Chromatography (HPLC), and the result was shown in FIG. 1c.
Then, after treating 1 mM vitamin C, or treating vitamin C 1 mM and phloretin 20 μM together to each cell line of the SVCT-2 high-expression cell lines, Sw480 and Sw620, the vitamin C absorption was measured, and the result was shown in FIG. 9a.
The experimental results measured according to the method for measuring the vitamin C absorption of SVCT-2 expression cell lines of Example 1-3, after treating various concentrations (0 mM or 1 mM) of vitamin C and treating 1 mM vitamin C and 20 μM phloretin, for SVCT-2 high-expression cell lines, Sw480 and Sw620 were shown in FIG. 9a.

[7] = system: colorectal cancer cell lines (Sw480, Sw620, LoVo, SNU-C4, HCT116, SNU-05, CoLo-205, HCT15, DLD-1); assay: Cell viability (Neutral red) of colorectal cancer cell lines treated with 1 mM vitamin C; settings: nine colorectal cancer cell lines
Procedure: Human colorectal cancer cells were cultured in RPMI1640 medium Gilbco, Cergy Pontoise, France) containing 10% bovine fetal serum (PAN Biotech, Aidenbach, Germany) and 1% Penstrep (PAN Biotech) in a humidified incubator comprising 5% CO2 under the condition of 37° C. Vitamin C was purchased from BCWORLD PHARM (BCWORLD PHARM. CO, Seoul, Korea), and phloretin was purchased from sigma Aldrich (Sigma, St. Louis, Mo., USA).
The human colorectal cancer cell lines used in the experiment were Sw480, Sw620, HCT116, HCT15, SNU-C4, SNU-05, DLD-1, LoVo, and CoLo-205 cell lines commonly used in the related art. All the colorectal cancer cell lines used in the experiment of the present invention were received from Dr. Yu Byung-Chul of National Cancer Center.
as §6
The cell viability of each colorectal cancer cell line was measured using the method of Experimental example 2, and the result was shown in FIG. 1b.

[8] = system: SVCT-2 low-expression cell lines (HCT116, CoLo-205, HCT15, DLD-1); assay: Cell viability (Neutral red), vitamin C concentration gradient, SVCT-2 low-expression cell lines
Procedure: as §6
(§7) In order to research a role conducted by vitamin C treated at a high concentration or low concentration to cancer cell lines, after treating vitamin C at various concentrations according to a concentration gradient to each cell line, the cell viability analysis was conducted using the method of Experimental example 2.
After treating vitamin C to SVCT-2 low-expression cell liens (HCT116, CoLo-205, HCT15, DLD-1) according to a concentration gradient (0 μm to 2 mM), the cell viability was measured, and the result was shown in FIG. 2a.

[9] = system: SVCT high-expression cell lines (Sw480, Sw620, LoVo, SNU-C4); assay: Cell viability (Neutral red), vitamin C concentration gradient, SVCT-2 high-expression cell lines
Procedure: as §6, §7
As same as the SVCT low-expression cell lines, after treating vitamin C to SVCT high-expression cell lines (Sw480, Sw620, LoVo, SNU-C4) according to a concentration gradient (0 μm to 2 mM), the cell viability was measured, and the result was shown in FIG. 2b. It was confirmed that in case of high-expression cell lines, when treating a low concentration of vitamin C, the cell viability was reduced, and as the treated concentration of vitamin C increased, the cell viability was reduced more.

[10] = system: SVCT-2 low-expression cell lines, DLD-1 and HCT15; assay: qRT-PCR gene expression analysis, SVCT-2 low-expression cell lines
Procedure: as §1, §2

[11] = system: SVCT-2 low-expression cell lines (DLD1 and HCT15); assay: ROS production by DCF-Da staining (FACS), SVCT-2 low-expression cell lines; settings: 15 minutes, DLD-1 and HCT15
Procedure: In order to investigate ROS production, when treating vitamin C of 10 μM or 1 mM to SVCT-2 low-expression cell lines (DLD1 and HCT15), after treating each dose of vitamin C to SVCT-2 low-expression cell lines, they were stained with DCF-Da, and the ROS measurement result was shown in FIG. 3a and FIG. 3b.

HCT15 and DLD-1 = assay: Western blot of Bax, c-Myc and Cyclin D1, SVCT-2 low-expression cell lines
Procedure: as §3, §4
In order to investigate the apoptosis and proliferation of cancer cells by vitamin C treatment in the protein expression level, a low concentration or high concentration of vitamin C was treated to SVCT-2 low-expression cell lines and the western blot analysis of Bax, c-Myc, and Cyclin D1 was conducted using the method of Experimental example 4, and the result was shown in FIG. 4c and FIG. 4d.

[12] = system: HCT15 and DLD-1 cell lines; assay: c-Myc localization by immunocytochemistry, SVCT-2 low-expression cell lines; settings: vitamin C 1 mM or 10 μM
Procedure: as §5
In order to investigate the expression of cancer proliferation markers in SVCT-2 low-expression cell lines and localization where c-Myc is present in cancer cell lines, after treating vitamin C of 1 mM or 10 μM to each SVCT-2 low-expression cell line, HCT15 and DLD-1 cell lines, the immunocytochemistry of Experimental example 5 was conducted, and the result was shown in FIGS. 4a and 4b.

[13] = vitamin C 10 μM and phloretin at the same time, Sw620 and Sw480
[14] = 10 μM vitamin C and phloretin at the same time
[15] = low concentration (10 μM) vitamin C, DLD-1 and HCT15
[16] = vitamin C 10 μM or 1 mM, Sw620 and Sw480
[17] = 10 μM or 1 mM vitamin C without phloretin

SMILES: O=C(CCc1ccc(O)cc1)c1c(O)cc(O)cc1O [phloretin]
- expression of E2F1 (qRT-PCR) [1, 13]: increased
- expression of Ki-67 (qRT-PCR) [1, 13]: increased
- ROS production (DCF-Da) ([2]; 20 μM phloretin with 10 μM vitamin C): not sufficiently produced
- expression of C-Myc (western blot) [3, 14]: increased
- expression of cyclin D1 (western blot) [3, 14]: increased
- Bax expression (western blot) ([3]; phloretin treatment (with 10 μM vitamin C)): did not change remarkably
- localization of increased c-Myc (immunocytochemistry) [4]: present in cytoplasm not a nucleus
- cytotoxicity of phloretin (cell viability assay) ([5]; concentration of phloretin used in the experiment (20 μM; 0-40 μM tested), Sw480 and Sw620): no cell self-toxicity
- cell response (cell viability) ([5]; phloretin together with vitamin C 10 μM): hormetic proliferation response occurred
- intracellular capacity of vitamin C (vitamin C absorption) [6]: reduced

SMILES: O=C1O[C@H]([C@@H](O)CO)C(O)=C1O [vitamin C, L-ASCORBIC ACID]
- cytotoxicity of vitamin C (cell viability) [7]: proportional to SVCT-2 expression
- cell viability ([8]; vitamin C 1.0 mM to 2.0 mM or more): dramatically reduced
- cell viability ([8]; vitamin C less than 10 μM): over 100%
- cell viability ([9]; as the treated concentration of vitamin C increased (up to 2 mM)): reduced more
- cell viability ([9]; low concentration of vitamin C): reduced
- expression of p53 (qRT-PCR) ([10]; 10 μM and 1 mM tested, SVCT-2 low-expression cell lines): induced only in case of treatment of 1 mM vitamin C
- expression of E2F1 (qRT-PCR) [10, 15]: increased
- expression of Ki-67 (qRT-PCR) [10, 15]: increased
- expression of cyclin D1 (qRT-PCR) [10, 15]: increased
- expression of p53 (qRT-PCR) ([1]; 10 μM and 1 mM, SVCT-2 high-expression cell lines): increased
- expression of E2F1 (qRT-PCR) [1, 16]: reduced
- expression of Ki-67 (qRT-PCR) [1, 16]: reduced
- expression of cyclin D1 (qRT-PCR) [1, 16]: reduced
- ROS production (DCF-Da) ([11]; 10 μM vitamin C): not produced
- ROS production (DCF-Da) ([11]; 1 mM vitamin C): produced
- ROS production (DCF-Da) ([2]; 1 mM vitamin C or 10 μM vitamin C): produced
- expression of c-Myc (western blot) (HCT15 and DLD-1; 10 μM vitamin C): increased
- expression of cyclin D1 (western blot) (HCT15 and DLD-1; 10 μM vitamin C): increased
- expression of c-Myc (western blot) (HCT15 and DLD-1; 1 mM vitamin C): reduced
- expression of cyclin D1 (western blot) (HCT15 and DLD-1; 1 mM vitamin C): reduced
- Bax expression (western blot) (HCT15 and DLD-1; vitamin C 1 mM and 10 μM): did not significantly change
- expression of C-Myc (western blot) [3, 17]: significantly reduced
- expression of cyclin D1 (western blot) [3, 17]: significantly reduced
- Bax expression (western blot) ([3]; vitamin C treatment (10 μM or 1 mM)): increased
- c-Myc localization (immunocytochemistry) [12]: almost localized in cytoplasm
- cell response (cell viability) ([5]; vitamin C 1 mM and 10 μM, without phloretin): apoptosis response was induced
